This is an account of results in patent publication US20180369241A1, “TREATMENT OF CANCER WITH DNAPK INHIBITORS” (Celgene Corporation, priority 2015, published 2018).

For one data set, the system named is LNCaP-AR xenografts. In kind it is in vivo. The conditions noted are these: for median tumor tripling time: enzalutamide 10 mg/kg, Compound 1 2 mg/kg, vehicle 15 days. The protocol:
(§1) FIG. 6 provides: Growth curves of LNCaP-AR xenografts in castrated mice treated daily with vehicle (black, n=5) or 25 mg/kg NU7441 (gray, n=6) (panel A); Fold change in final tumor volume (panel B); Kaplan-Meier curves of freedom from tumor doubling time with vehicle or NU7441 (25 mg/kg) treatment of LNCaP-AR xenograft tumors (panel C); Growth curves of LNCaP-AR xenograft tumors with 5 times weekly oral gavage enzalutamide (10 mg/kg, n=16), Compound 1 (2 mg/kg, n=14), Compound 1+enzalutamide (n=14), or vehicle (n=14) treatment. Bar graph represents change in final tumor volume compared to starting tumor volume (panel D); Kaplan-Meier curves of freedom from tumor tripling with enzalutamide, Compound 1, enzalutamide+Compound 1, or vehicle treatment of LNCaP-AR xenograft tumors (panel E); Expression of select Wnt pathway target genes in human primary prostate tumor explants treated with NU7441 (n=6) or vehicle (panel F); and Representative images of Ki67 immunostaining of human primary prostate tumor explants treated with NU7441 (n=6) or vehicle; Ki67-positive nuclei are indicated with arrows (panel G). All graphs are mean±S.E.M. *=p<0.05 compared to respective control, #=p<0.05 for enzalutamide compared to Compound 1+enzalutamide, **=p<0.01 for Compound 1 compared to vehicle.
(§2) FIG. 10 provides: Body weight measurements of LNCaP-AR xenograft mice after treatment with NU7441 (panel A); Growth curves of VCaP xenograft tumors with various doses of Compound 1 (administered once daily via oral gavage, 5 times per week for 6 weeks) or vehicle (panel B); Body weight measurements of VCaP xenograft mice after treatment with various Compound 1 doses (panel C); and Growth curves of PC3 xenograft tumors treated with Compound 1 or vehicle (panel D). All graphs are mean±S.E.M. *=p<0.05 compared to vehicle.

The test system of data set [1] is PC3 cells. The data set can be described thus: Boyden chamber migration and invasion assay, crystal violet quantification. In kind it is cell-based. The conditions noted are these: PC3 cells (AR-negative). An excerpt: (§3) FIG. 2 provides: Representative images (200×) and crystal violet quantification of migration (panel A) and invasion (panel B) of C4-2, LNCaP-AR and PC3 cells in Boyden chamber assays after DNAPK knockdown (siRNA) or inhibition (NU7441); C4-2, LNCaP-AR and PC3 cell growth curves after DNAPK inhibition (NU7441) (panel C) or knockdown (siRNA) (panel D); and DNAPK knockdown by siRNA relative to non-targeting (siNTC) control (panel E). *p<0.05, […] compared to respective controls. All graphs are mean±S.D.

Data set [2] relates to Wnt pathway genes in C4-2 cells. The data set can be described thus: Expression of Wnt pathway genes after DNAPK inhibition. In kind it is cell-based. The source says: FIG. 8 provides: Expression of Wnt pathway genes in C4-2 cells after inhibition (NU7441) (panel A) or knockdown (panel B) of DNAPK; and Expression of Notch pathway genes in LNCaP-AR, PC3 and C4-2 cells after knockdown of DNAPK (panel C). GAPDH was used as internal reference, bars are mean±S.D. *=p<0.05. RQ=relative quantity.

For data set [3], the system named is TOPFLASH reporter in PC3 cells. The data set can be described thus: TOPFLASH luciferase reporter activity. In kind it is cell-based. The note with it: baseline and Wnt3A-induced, normalized to renilla luciferase. An excerpt: FIG. 5 provides: Immunoblot analyses of DNAPK, KU70 and LEF1 after DNAPK immunoprecipitation (left), and LEF1 and DNAPK after LEF1 immunoprecipitation (right) in LNCaP-AR cells (panel A); TOPFLASH luciferase reporter activity in PC3 cells after DNAPK inhibition (NU7441) and/or Wnt3A stimulation; activity is normalized to renilla luciferase (panel B); and Representative images (200×) and crystal violet quantification of LNCaP-AR and C4-2 cell invasion and migration after DNAPK, LEF1 or beta catenin (CTNNB1) knockdown by siRNA. *=p<0.05 compared to respective controls, #=p<0.05 compared to Wnt3A (panel C). All graphs are mean±S.D. siNTC=non targeting siRNA control.
(In general: Reporter assays use an easily measured gene product as a stand-in for the process of interest.)

The test system of another data set is LNCaP-AR-MDVR cells. The experiment in a line: Invasion and migration of enzalutamide-resistant LNCaP-AR cells, crystal violet quantification. In kind it is cell-based. The source says:
(§4) FIG. 4 provides: Expression of Wnt pathway genes after DNAPK knockdown (panel A) or inhibition (NU7441) (panel B) in LNCaP-AR cells; Immunoblot analyses of DNAPK, phospho-DNAPK (pDNAPK), active beta catenin (βcatenin), and cMyc levels in LNCaP-AR and C4-2 cells after DNAPK knockdown (siDNAPK) or inhibition (NU7441) with or without Wnt3A stimulation (panels C-D); Representative images (200×) and crystal violet quantification of LNCaP-AR and C4-2 cell invasion and migration after DNAPK inhibition (NU7441 or Compound 1) with or without Wnt3A stimulation (panel E); and Representative images (200×) and crystal violet quantification of enzalutamide-resistant LNCaP-AR (LNCaP-AR-enza-res) cell invasion and migration after DNAPK inhibition (NU7441 or Compound 1) or continued enzalutamide treatment (Enza) (panel F). All graphs are mean±S.D. *=p<0.05 compared to respective controls. Enza=enzalutamide. Enza-res=enzalutamide resistant. RQ=relative quantity. siNTC=non-targeting siRNA control.
FIG. 9 provides: Expression of Wnt pathway target genes in LNCaP-AR cells grown in enzalutamide until resistance (LNCaP-AR-enza-res) relative to LNCaP-AR cells grown in vehicle (DMSO) (panel A); and Expression of AR or AR-target genes FKBP5 and KLK3 (PSA) in LNCaP-AR-enza-res cells after treatment with 10 μM enzalutamide (panel B). GAPDH was used as internal reference, bars are mean±S.D. *=p<0.05. RQ=relative quantity.

The test system of data set [4] is LNCaP-AR cells. The experiment in a line: Cell growth curves after DNAPK inhibition. It is filed as cell-based.
Source text: as §3

The subject of data set [5] is C4-2 cells. The data set can be described thus: Cell growth curves after DNAPK inhibition. In kind it is cell-based.
Source text: as §3

In data set [6] the test system is PC3 cells. The experiment in a line: Cell growth curves after DNAPK inhibition. It is filed as cell-based.
Source text: as §3

The subject of data set [7] is Wnt pathway genes in LNCaP-AR cells. The experiment in a line: Expression of Wnt pathway genes after DNAPK inhibition. It is filed as cell-based.
Source text: as §4

The subject of data set [8] is human primary prostate tumor explants. The experiment in a line: Human primary prostate tumor explants. The note with it: human prostate cancer explants. The protocol: as §1
In data set [9] the test system is active beta-catenin and cMyc in LNCaP-AR cells. The experiment in a line: Immunoblot of active beta catenin and cMyc with or without Wnt3A stimulation. It is filed as cell-based. The note with it: baseline and Wnt3A-induced.
Source text: as §4
Background: Immunoblotting shows a protein as a band on a membrane.

Data set [10] has as its system active beta-catenin and cMyc in C4-2 cells. Described as above. In kind it is cell-based. The conditions noted are these: baseline and Wnt3A-induced.
Source text: as §4

In data set [11] the test system is LNCaP-AR cells. The experiment in a line: Boyden chamber migration and invasion assay, crystal violet quantification. In kind it is cell-based.
Source text: as §3, §4

The subject of data set [12] is C4-2 cells. The data set is described as above. It is filed as cell-based.
Source text: as §3, §4

For the next data set, the system named is PC3 xenograft tumors. The experiment in a line: PC3 xenograft tumor growth. It is filed as in vivo.
Source text: as §2

A further data set deals with VCaP xenograft tumors. It is filed as in vivo, mice.
Source text: as §2

[13] abbreviates: LNCaP-AR (CRPC) cells, baseline and Wnt3A-induced.
Where [14] appears, read: C4-2 (CRPC) cells, baseline and Wnt3A-induced.

Each structure is given as a SMILES string.

As to `CNC(=O)c1ccc(N2C(=S)N(c3ccc(C#N)c(C(F)(F)F)c3)C(=O)C2(C)C)cc1F` [enzalutamide], the “median tumor tripling time” value in the data set on LNCaP-AR xenografts (5 times weekly oral gavage) is 23.5 days.
`O=c1cc(N2CCOCC2)oc2c(-c3cccc4c3sc3ccccc34)cccc12` [NU7441]: the invasion entry with PC3 cells [1] is on record as “drastically diminished”; in the data set with LNCaP-AR-MDVR cells it was “significantly reduced”; in the data set with LNCaP-AR cells [11] (setting [13]), “abrogated”; in the data set with LNCaP-AR cells [11] (LNCaP-AR cells (AR-positive)) it was “drastically diminished”; in the data set on C4-2 cells [12] (setting [14]), “abrogated”; with C4-2 cells [12] (C4-2 cells (AR-positive)), “drastically diminished”. Besides, the migration entry is listed as “drastically diminished” with PC3 cells [1]; “significantly reduced” in the data set on LNCaP-AR-MDVR cells; “abrogated” in the data set with LNCaP-AR cells [11] (setting [13]); “drastically diminished” with LNCaP-AR cells [11] (LNCaP-AR cells (AR-positive)); “abrogated” with C4-2 cells [12] (setting [14]); “drastically diminished” with C4-2 cells [12] (C4-2 cells (AR-positive)). Moreover, the “Wnt pathway genes expression” value in [2] and in [7] was “robust reduction” in each case. The TOPFLASH reporter activity result in data set [3] is reported as “significantly reduced”. The proliferation entry in the data set with LNCaP-AR cells [4], in the data set with C4-2 cells [5] and with PC3 cells [6] was “drastically diminished” each time. In the data set with LNCaP-AR xenografts (castrated mice, 25 mg/kg daily), the “reduction in tumor growth compared to control” value came out at 44%. This molecule registered a relative tumor volume in the data set with LNCaP-AR xenografts (castrated mice, 25 mg/kg daily, fold change in final tumor volume, vehicle 8.57±1.45) of 4.84±1.97. Also, the “median tumor doubling time” value in the data set with LNCaP-AR xenografts (castrated mice, 25 mg/kg daily, vehicle 7 days) is reported as 21.5 days. The “toxicity as measured by body weight” value in the data set on LNCaP-AR xenografts (mouse, in vivo) is given as “minimal”. Further, the “Wnt target gene expression” value in data set [8] is reported as “marked reduction”. Further, the “proliferative index, as determined by Ki67 levels” value in data set [8] is reported as “marked reduction”. Moreover, the “levels of active beta-catenin” value in [9] and in data set [10] was “reduced” in each case. In addition, the “levels of cMyc” value in [9] and in [10] was “reduced” each time.
In the case of `CCN1C(=O)CNc2ncc(-c3ccc(-c4nc[nH]n4)nc3C)nc21` [Compound 1, 1-ethyl-7-(2-methyl-6-(1H-1,2,4-triazol-3-yl)pyridin-3-yl)-3,4-dihydropyrazino[2,3-b]pyrazin-2(1H)-one], the invasion entry in the data set on LNCaP-AR-MDVR cells is “significantly reduced”; in the data set with LNCaP-AR cells [11] (setting [13]), “abrogated”; in the data set with C4-2 cells [12] (setting [14]) it was “abrogated”. For the same molecule, the results for the migration entry in the data set with LNCaP-AR-MDVR cells, in the data set with LNCaP-AR cells [11] (setting [13]) and with C4-2 cells [12] (setting [14]) were “significantly reduced”, “abrogated” and “abrogated”, respectively. The “median tumor tripling time” value in the data set with LNCaP-AR xenografts (5 times weekly oral gavage) was found to be 29.5 days. Moreover, the tumor regression result with LNCaP-AR xenografts (pre-castrated conditions, 2 mg/kg, 5 times weekly oral gavage, comparator enzalutamide 10 mg/kg) is “significantly better tumor regression compared to enzalutamide”. Besides, the “regression of AR-independent PC3 tumors” value in the data set on PC3 xenograft tumors is “significant regression”. For the same molecule, the “toxicity (body weight)” value with VCaP xenograft tumors (mouse, in vivo, 2 mg/kg) is on record as “non-toxic”. The tumor growth result with VCaP xenograft tumors (various doses, once daily oral gavage, 5 times per week for 6 weeks, best observed at 2 mg/kg) was “dose-dependent reduction”.
